{"source": "paper PMC7734006", "about": "(Cancer Science, 2020)", "key": {"[1]": {"assay": "Plasma alectinib pharmacokinetics", "type": "in vivo, human"}, "[2]": {"test_system": "relapsed or refractory ALCL", "settings": "6 of 17 patients; cited from earlier work"}, "[3]": {"test_system": "relapsed or refractory ALCL", "settings": "36 pediatric patients treated weekly; cited from earlier work"}, "[4]": {"test_system": "relapsed or refractory systemic ALCL", "settings": "cited from earlier work"}, "[5]": {"settings": "patients who achieved CR with BV"}}}
{"molecule": "CCc1cc2c(cc1N1CCC(N3CCOCC3)CC1)C(C)(C)c1[nH]c3cc(C#N)ccc3c1C2=O", "note": "[alectinib]", "values": [{"measurement": "Time to steady-state peak concentration (median)", "setting": "[1]; cohort A: younger than 15 years, 300 mg/d", "result": 4, "unit": "h"}, {"measurement": "Time to steady-state peak concentration (median)", "setting": "[1]; cohort B: younger than 15 years, 600 mg/d", "result": 5, "unit": "h"}, {"measurement": "Time to steady-state peak concentration (median)", "setting": "[1]; cohort C: 15 years or older, 600 mg/d", "result": 4, "unit": "h"}, {"measurement": "Peak concentration of alectinib", "setting": "[1]; the patient who died following disease progression after the first course (cohort C)", "result": 16.97, "unit": "mg/mL"}]}
{"molecule": "C#CCC(Cc1cnc2nc(N)nc(N)c2n1)c1ccc(C(=O)N[C@@H](CCC(=O)O)C(=O)O)cc1", "note": "(stereo partly shown) [pralatrexate]", "values": [{"measurement": "Objective response rate", "setting": "[2]", "result": 35, "unit": "%"}]}
{"molecule": "CC[C@]1(O)C[C@@H]2CN(CCc3c([nH]c4ccccc34)[C@@](C(=O)OC)(c3cc4c(cc3OC)N(C)[C@H]3[C@@](O)(C(=O)OC)[C@H](OC(C)=O)[C@]5(CC)C=CCN6CC[C@]43[C@@H]65)C2)C1", "note": "[vinblastine]", "values": [{"measurement": "5-year EFS rate", "setting": "[3]", "result": 30, "unit": "%"}, {"measurement": "CR rate", "setting": "[3]", "result": 83, "unit": "%"}]}
{"molecule": "BV: anti-CD30 Ab drug conjugated to the microtubule-disrupting agent, monomethyl auristatin E", "values": [{"measurement": "CR rate", "setting": "[4]; 33 of 58 patients", "result": 57, "unit": "%"}, {"measurement": "Objective response rate", "setting": "[4]; 50 of 58 patients", "result": 86, "unit": "%"}, {"measurement": "Patients without recurrence with no treatment after a BV treatment regime", "setting": "[4]", "result": "approximately 15%"}, {"measurement": "Peripheral neuropathies, patients", "setting": "[4]", "result": 41, "unit": "%"}, {"measurement": "5-year OS", "setting": "[4]; [5]", "result": 79, "unit": "%"}, {"measurement": "5-year PFS", "setting": "[4]; [5]", "result": 57, "unit": "%"}]}
